The text below walks through data of patent US7683097B2, “Topoisomerase inhibitors” (Propharmacon Inc., priority 2004, dated 2010).

Each structure is given as a SMILES string. Where two headings read alike, the source gives them in different places.

Series [1] can be described thus: Acute toxicological study, i.p. It counts as in vivo. The settings on record: female CD-1 mice, n=3, seven days.
Procedure: (§3) An acute toxicological study was performed for 320 prior to the xenograft study. Two groups (n=3) of female CD-1 mice were injected intraperitoneally (i.p.) with either 10 or 100 mg/Kg of 320 dissolved in 5% DMSO, 10% PEG400. […] A second MTD study was done by the intravascular (i.v.) route using 4 groups of CD-1 mice for the following: vehicle, 3, 10 and 30 mg/Kg injections which were to be given daily for days 1-5 and study duration of two weeks, at which point survivors would be euthanised.
In series [2] the test system is MCF-7/ADR. Description: Cell proliferation assay, MDR line MCF-7/ADR. The series is classed as cell-based, human. To be noted: 48 hrs exposure; less potent in MCF-7/ADR. From the text: (§1) The MCF-7 cell line, the MDR cell line, and the MCF-7/ADR cell line were used. Alamar Blue™ was used to quantitate cell viability.
For series [3], the system named is MCF-7. In words: Cell proliferation assay, MCF-7. It counts as cell-based. To be noted: Homo sapiens, MCF7; 48 hrs exposure, Alamar Blue, FIG. 6; no shift between MCF-7 and MCF-7/ADR; read-out: approximate IC50, cell proliferation. The procedure:
as §1
The compounds listed in Table II were prepared using the procedures outlined in the above Examples.

Series [4] deals with T1, Topo I (Homo sapiens, UniProt P11387).
T1 sequence (P11387 1-765): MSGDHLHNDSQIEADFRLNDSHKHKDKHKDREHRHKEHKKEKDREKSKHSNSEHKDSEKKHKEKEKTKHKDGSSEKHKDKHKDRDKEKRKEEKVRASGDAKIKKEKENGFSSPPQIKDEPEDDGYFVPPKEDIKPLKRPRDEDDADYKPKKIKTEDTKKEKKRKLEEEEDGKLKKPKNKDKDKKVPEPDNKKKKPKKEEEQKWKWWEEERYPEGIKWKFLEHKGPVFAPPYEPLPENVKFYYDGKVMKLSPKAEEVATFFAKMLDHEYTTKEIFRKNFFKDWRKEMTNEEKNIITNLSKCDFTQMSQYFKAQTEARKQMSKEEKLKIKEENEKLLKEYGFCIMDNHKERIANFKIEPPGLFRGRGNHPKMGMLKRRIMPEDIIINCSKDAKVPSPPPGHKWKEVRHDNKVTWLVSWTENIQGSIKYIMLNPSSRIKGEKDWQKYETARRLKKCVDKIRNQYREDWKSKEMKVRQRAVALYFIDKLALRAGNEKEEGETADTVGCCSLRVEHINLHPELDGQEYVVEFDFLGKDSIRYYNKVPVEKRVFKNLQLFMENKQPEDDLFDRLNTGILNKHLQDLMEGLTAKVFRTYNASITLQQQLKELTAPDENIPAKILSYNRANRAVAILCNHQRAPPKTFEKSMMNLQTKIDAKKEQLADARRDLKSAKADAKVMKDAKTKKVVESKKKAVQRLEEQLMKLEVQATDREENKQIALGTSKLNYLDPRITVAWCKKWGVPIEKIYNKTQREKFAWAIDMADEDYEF
In words: Topo I covalent complex stabilization test. The settings on record: similar tests as for Topo IIα. The series is classed as biochemical. The text has this: (§2) To determine if the compound 320 stabilizes the TopoIIα-DNA covalent complex, cleavage intermediates are trapped by the addition of SDS to the reaction (Wilson Byl, J. A., et al., Biochemistry, 40, 712-718, 2001). After proteinase K digestion to digest any covalently bound Topo, the products are electrophoresed and stained with EtBr. The appearance of an additional band that is a linear form of the 2.5 Kb minicircle product is indicative of a compound's ability to stabilize the covalent complex.

For series [5] the following is noted: mouse, in vivo, iv.
Procedure: as §3
Series [6] concerns the target T2, human Topo IIα (Homo sapiens, UniProt P11388).
T2 construct: purchased Topogen Inc. Columbus, Ohio
In words: Topo IIα decatenation inhibition assay (kDNA, agarose gel). To be noted: sample gel, FIG. 2; kDNA substrate. It counts as biochemical.
Excerpt: When present, high molecular weight kDNA has not migrated from the loading well.
The enzyme assays used for determining Topo IIα inhibition was either the ATP-dependent decatenation of high molecular weight kDNA (kinetoplast) as substrate or the relaxation of supercoiled pBR322 each incorporating human Topo IIα (Topogen Inc. Columbus, Ohio) and following literature protocols (Fortune, J. M. et al., J. Biol. Chem., 273(28), 17643-50 1998; Muller, M. T. et al., Biochemistry, 27(22), 8369-79, 1988). The 2.5 Kd mini-circle product derived from the catenated substrate is resolved on an agarose gel with ethidium bromide staining after electrophoresis. Likewise, the relaxed form of pBR322 is resolved from the faster moving supercoiled form during electrophoresis.

Series [7] addresses TopoIIα-DNA covalent complex (Homo sapiens, UniProt P11388). In words: Topo IIα DNA covalent complex stabilization assay. The series is classed as biochemical. The settings on record: SDS trapping, proteinase K, FIG. 5.
Excerpt: as §2

In series [8] the test system is NCI-H460. In words: NCI-H460 human xenograft study in nude mice. To be noted: i.v., 320 25 mg/Kg days 1-5, etoposide 35 mg/Kg days 7, 10, 14.
Procedure: as §3
All injections were by the i.v. route; groups were 5 NCR nu/nu mice. The cell line NCI-H460 was used to produce the tumors that appeared by day 7. […] All survivors to day 28 were euthanised at this time and tumor volumes measured.

Chain of TopoIIα-DNA covalent complex (P11388 whole entry, one chain of several): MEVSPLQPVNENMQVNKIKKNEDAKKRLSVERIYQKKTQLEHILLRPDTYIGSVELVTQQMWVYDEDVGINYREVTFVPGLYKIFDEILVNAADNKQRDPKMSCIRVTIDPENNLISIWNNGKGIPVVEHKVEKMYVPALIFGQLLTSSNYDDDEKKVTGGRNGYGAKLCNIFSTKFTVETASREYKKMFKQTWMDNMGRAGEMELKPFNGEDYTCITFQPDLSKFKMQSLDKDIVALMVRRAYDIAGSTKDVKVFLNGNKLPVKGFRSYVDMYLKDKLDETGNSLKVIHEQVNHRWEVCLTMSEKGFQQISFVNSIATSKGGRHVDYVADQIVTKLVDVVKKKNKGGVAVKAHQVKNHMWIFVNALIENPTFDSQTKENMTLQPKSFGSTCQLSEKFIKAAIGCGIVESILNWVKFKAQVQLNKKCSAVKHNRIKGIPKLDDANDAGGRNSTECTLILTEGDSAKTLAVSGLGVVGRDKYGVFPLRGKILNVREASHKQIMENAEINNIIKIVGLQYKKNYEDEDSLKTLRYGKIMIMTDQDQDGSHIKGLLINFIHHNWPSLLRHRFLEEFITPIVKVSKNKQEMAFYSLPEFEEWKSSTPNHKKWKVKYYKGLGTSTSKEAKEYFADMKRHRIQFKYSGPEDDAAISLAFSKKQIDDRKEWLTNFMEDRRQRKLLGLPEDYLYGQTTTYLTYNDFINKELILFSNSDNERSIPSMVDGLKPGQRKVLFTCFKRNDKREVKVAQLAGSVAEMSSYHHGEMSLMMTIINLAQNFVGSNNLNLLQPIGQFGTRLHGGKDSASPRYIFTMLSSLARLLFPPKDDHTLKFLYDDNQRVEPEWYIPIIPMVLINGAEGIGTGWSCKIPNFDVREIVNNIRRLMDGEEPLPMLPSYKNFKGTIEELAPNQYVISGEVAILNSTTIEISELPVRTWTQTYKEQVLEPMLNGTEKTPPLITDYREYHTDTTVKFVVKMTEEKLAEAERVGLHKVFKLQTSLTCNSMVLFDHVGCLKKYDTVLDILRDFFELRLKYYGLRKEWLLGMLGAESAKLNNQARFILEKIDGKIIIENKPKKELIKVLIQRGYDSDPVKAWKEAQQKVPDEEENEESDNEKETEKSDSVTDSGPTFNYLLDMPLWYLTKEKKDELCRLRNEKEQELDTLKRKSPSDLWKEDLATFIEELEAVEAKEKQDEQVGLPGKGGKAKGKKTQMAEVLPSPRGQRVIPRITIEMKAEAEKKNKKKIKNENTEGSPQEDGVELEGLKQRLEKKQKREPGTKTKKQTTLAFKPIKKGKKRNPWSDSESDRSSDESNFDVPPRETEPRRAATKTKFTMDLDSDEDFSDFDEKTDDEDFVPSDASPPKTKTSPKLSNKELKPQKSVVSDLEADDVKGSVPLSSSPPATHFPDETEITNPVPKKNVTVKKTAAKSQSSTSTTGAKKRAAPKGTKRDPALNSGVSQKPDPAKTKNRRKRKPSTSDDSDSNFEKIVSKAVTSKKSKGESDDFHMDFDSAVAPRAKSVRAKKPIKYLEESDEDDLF
T2 sequence (P11388 whole entry): as the sequence (P11388 whole entry, one chain of several) above

`O=C(NC1(C(=O)O)Cc2ccccc2C1)c1ccc(Cl)c(-c2ccc(-c3ccccc3)cc2)c1` [Compound 320, 2-[(6″-Chloro-[1,1′;4′,1″]terphenyl-3″-carbonyl)-amino]-indan-2-carboxylic acid]: the “survival and side effects, acute toxicity” value in series [1] (10 mg/Kg (low dose)) is given as “all the low dose mice survived with no visible side effects”. Further, in series [1] (100 mg/Kg (high dose)), the “survival, acute toxicity” value is reported as “Two mice in the high dose group survived”. For the same compound, the “shift in potency, resistant line MCF-7/ADR versus parent line MCF-7” value in series [2] is reported as “no shift in potency”. In series [3], the IC50 was about 30 µM. In addition, the “stabilization of the covalent complex in Topo I reactions” value in series [4] is given as “no apparent stabilization of the covalent complex”. Also, the “survival, MTD study” value in series [5] is given as “All other animals survived to the end of the study”; in series [5] (30 mg/kg), “Two animals in the highest dose group survived with one animal dying after 3 injections”. Moreover, in series [6], the “inhibition of Topo IIα decatenation” value is given as “complete inhibition”. Also, the “stabilization of the TopoIIα-DNA covalent complex (linear form of minicircle)” value in series [7] is recorded as “does not stabilize the covalent complex”. The “initial tumor growth delay” value in series [8] was “no initial growth delay”. Besides, in series [8] (doxorubicin 5 mg/Kg days 7 and 14, day 28), the “anti-tumor activity with respect to final tumor volume” value is reported as “some final growth inhibition”.
